Test results taken from US20070014788A1, “Laminin-5 modulators and uses thereof” (Novo Nordisk A/S, priority 2004, published 2007).

B1: TRAIL: TNF-related apoptosis-inducing ligand (protein, UniProt P50591 1-281, looked up)
Tumor necrosis factor ligand …: MAMMEVQGGPSLGQTCVLIVIFTVLLQSLCVAVTYVYFTNELKQMQDKYSKSGIACFLKEDDSYWDPNDEESMNSPCWQVKWQLRQLVRKMILRTSEETISTVQEKQQNISPLVRERGPQRVAAHITGTRGRSNTLSSPNSKNEKALGRKINSWESSRSGHSFLSNLHLRNGELVIHEKGFYYIYSQTYFRFQEEIKENTKNDKQMVQYIYKYTSYPDPILLMKSARNSCWSKDAEYGLYSIYQGGIFELKENDRIFVSVTNEHLIDMDHEASFFGAFLVG

What follows are molecules tested on SW480 cells (assay: Cell death (LDH release) of transfected SW480 cells, alone and with anti-cancer compounds). Conditions: low dose of compound, 24 hours.
Type: cell-based
Procedure: SW480 cells obtained from ATCC were grown in DME:F12 supplemented with 10% foetal calf serum and routinely checked for being mycoplasma free. For transfection, the cells were seeded as 3×10^5 cells/2 ml in 6 well plates. Transfection was carried out after cells have attached at least overnight using Lipofectamin 2000 (Life Technologies). Liposomes were formed in medium without serum by mixing 10 μl lipofectamine 2000 and 3 μg plasmid DNA or 15 μl 20 pmol/μl oligonucleotide in a total volume of 250 μl. After liposome formation, the mixture was added to cells and incubated 5 hours in cell incubator before medium was changed to complete medium with serum. After 24 hours, cells were trypsinised and moved to 96 well plates to analyse for death induction.
The cells were allowed to plate for 24 hours before dosing with the indicated compounds, all in triplicate. The compounds were solubilised in DMSO and added to cells in medium with no more than 0.1% v/v DMSO. Triplicate cell cultures for basal cell death (untreated) and maximal response (complete lysis) were included as well as triplicate media samples for background determination. Cells were incubated for additional 24 hours. The maximal response (100% cell death) was induced by adding 1% v/v Triton X100 to triplicate cell cultures 5 min before medium was collected for detection of lactate dehydrogenase (LDH) activity. Medium from all samples were used in the detection of LDH using a kit from Takara Bio Inc.

Row | Molecule | effect of added compound on the increased cell death by siRNA against gamma2
1 | CN[C@@H]1C[C@H]2O[C@@](C)([C@@H]1OC)n1c3ccccc3c3c4c(c5c6ccccc6n2c5c31)C(=O)NC4 [staurosporine] | did not attenuate
2 | C/C=C(/C)C(=O)O[C@H]1C(C)=C2[C@H]([C@@H]1OC(=O)CCCCCCC)[C@@](C)(OC(C)=O)C[C@H](OC(=O)CCC)[C@@]1(O)[C@H]2OC(=O)[C@@]1(C)O [thapsigargin] | did not attenuate
3 | tunicamycin | did not attenuate
4 | B1 | did not attenuate
